Source: patent US20070275953A1 (priority 2003, published 2007)
Like-named read-outs stand apart in the source and are kept apart here.

Key:
P4 cells = assay: Cytotoxicity (CC50), MTT assay on P4 cells; assay type: cell-based; details: 3 days
Method: (§1) For the antiviral and the cytotoxicity assays, the drugs were diluted in complete DMEM medium. In these experiments, drugs were diluted in triplicate wells in a 96-well plate in six, 5 fold serial dilutions.
(§2) The 50% cytotoxic concentration (CCso) was determined using a protocol adapted from Pauwels et al. (1988. J. Virol. Methods 20(4):309-21). Briefly, flat bottom 96-well plates were filled with 50 μl of complete medium containing 5.10^3 P4 cells. 2 hours later 50 μl of drug solution were added to the cells. Drugs (dissolved in DMEM, see above) were diluted in six, 5-fold serial dilutions from stock solutions in triplicate wells of a 96-well plate. Cells and compounds were incubated at 37° C. in growth medium for 3 days. Cell viability was determined by MTT assays using the Roche Cell Proliferation KIT. The absorbance (λ=570 nm) was measured on a Benchmark™ Microplate Reader (Biorad) and compared with 12 cell control replicates (no drug added). Each assay was performed at least three times for a total of at least nine replicate wells. This method detects both cytostatic and cytolytic effects of drugs.

[1] = tested on: HIV-1 with WT (wild type) RT in PBMC; assay: Anti-HIV assay on PBMC, WT RT (p24); assay type: cell-based
Method: Wurzburg Jurkat T cells (subclone JR) were transfected with 10 μg of the circularly permuted infectious molecular clone HIVNL4-3 (Adachi et al., 1986. J. Virol, 59 (2), p 284-291). Two days later, co-cultivation with SupT1 cells (a human T-cell lymphoma cell line) was initiated to facilitate rapid production of progeny virions. Production of virus was measured by using the Innotest HIV Antigen mAb p24 kit (Innogenetics). At the peak of production cultures were harvested and filtered. The virus stocks were stored at −80° C. until used.
Anti-HIV activity of the compounds was tested on Peripheral Blood Mononuclear Cells (PBMCs). These cells were separated from the blood of healthy donor using established procedures. PBMCs were cultured in RPMI medium supplemented with 10% fetal bovine serum (FBS), 1% Penicillin/Streptomycin and 20 U/ml of Interleukin-2.
PBMCs isolated from the blood of healthy donor contain CD4^+ T-lymphocytes which are one of the main targets of HIV in infected individuals.
Briefly, in the anti-HIV assay PBMCs, activated with phytohemagglutinin, were infected with HIV-1. 100 μl of infected PBMCs were seeded in 96-well plate at a concentration of 1 10^5 cells/ml, and 100 μl of the different drugs dilutions were added to the cells. After 4 days of incubation at 37° C., 5% CO2, cells cultures supernatants were collected. The amount of the viral capsid protein p24 in the supernatants was measured using the Innotest HIV Antigen mAb P24 kit (Innogenetics).

[2] = Cytotoxicity (CC50), MTT assay on P4 cells; assay type: cell-based; details: human
Method: as §1, §2

[3] = tested on: HIV-1 mutant Cys188RT in TZM-bl cells; assay: Anti-HIV assay on TZM-bl cells, Cys188RT mutant; assay type: cell-based; details: read-out: EC50 Cys188RT TZM-bl
From the text: (§3) In order to introduce mutation(s) at the level of the pol gene coding for the RT in the pNL4-3 plasmid containing the complete viral genome (Adachi et al., 1986. J. Virol., Vol. 59 p 284-291) we used the “Quick change mutagenesis kit” (Stratagene). The following mutations were separately introduced in pNL4-3: L100I, K103N, V108I, Y181C, Y188C, and the double mutations K103N/V108I. These mutations were chosen because of the resistance that they confer to existing NNRTI. The production procedure of the mutant viral stocks is identical to the one described above.
Anti-HIV activity and cytotoxicity of the compounds were tested on the TZM-b1 cell line. The TZM-b1 cell line (Wei et al. 2002. Antimicrob. Agents Chemother. Vol. 46, p 1896-1905) was received from the NIH AIDS Research and Reference Reagent Program. These cells were cultured in complete DMEM medium supplemented with 10% fetal bovine serum (FBS), and 1% Penicillin/Streptomycin. Exponentially growing cells were trypsinized, centrifuged and split twice weekly at 5 10^4 cells/ml.
The anti-HIV assay with TZM-b1 cells is essentially the same as described above with P4 cells. The main difference between the two cell lines is that the TZM-b1 cells express at their surface both the CD4 and CCR5 proteins, acting as receptor and co-receptor for HIV entry, respectively (Wei et al. 2002. Antimicrob. Agents Chemother. Vol. 46, p 1896-1905). This feature makes the cells very sensitive to infection by the virus. The TMZ-b1 cells were infected with equal amount of cell-free virus, corresponding to 10 ng of HIV p24 antigen. This amount is ten times lower than the amount used to infect the P4 cells.

[4] = tested on: HIV-1 mutant Asn103RT in P4 cells; assay: Anti-HIV assay on P4 cells, Asn103RT mutant; assay type: cell-based
From the text: as §3
Anti-HIV activity and cytotoxicity of the compounds were tested on a P4 cell line. The P4 cell line (Clavel & Charneau, 1994. J. Virol., Vol. 68 p 1179-1185) was provided by Dr. François Clavel (Unité de recherche antivirale de l'hôpital Xavier Bichat Paris: Inserm). The P4 cells were cultured in complete DMEM medium supplemented with 10% fetal bovine serum (FBS), 0.5% of Penicillin/Streptomycin and G418 at 0.5 mg/ml. Exponentially growing cells were trypsinized, centrifuged and split twice weekly at 5.10^4 cells/ml.
The P4 cells are HIV-infectible Hela-CD4 cells that carry the bacterial lacZ gene under the control of the HIV-1 long terminal repeat (LTR). In this cell line, transcription of the LacZ gene is driven by the HIV-1 LTR. […]
Briefly, in the anti-HIV assay 100 Ål of P4 cells were plated in 96-well plate at a concentration of 0.4 10^5 cells/ml and incubated at 37° C., 5% CO2. […] After 48 h of incubation at 37° C., 5% CO2, β-galactosidase activity was measured using chlorophenol red-β-D-galactopyranoside assays.
The absorbance was measured on a Benchmark™ Microplate Reader (Biorad) (λ=570 nm) and compared with 12 cell control replicates (no virus or drug added) and 12 virus control wells (no drug added). […] The 50% effective concentration (Ec50) was calculated from each dose response curve using the CurveExpert 1.3 software. […]

[5] = Human immunodeficiency virus 1, TZM-bl
[6] = Human immunodeficiency virus 1, read-out: EC50 Asn103RT P4

In the case of `CCOC(=O)c1c(OC2CC(C)CC(C)C2)c(CC)c(C)[nH]c1=O` (single isomer, unassigned) [Z37inv], the CC50 (P4 cells) is reported as 64 µM and the EC50 [1] is reported as 0.054 µM.
With `O=C1Nc2ccc(Cl)cc2[C@@](C#CC2CC2)(C(F)(F)F)O1` [Efavirenz, reference compound] the CC50 at 3 days [2] was 40 µM and the EC50 [3, 5] was less than 0.001 µM.
`Cc1ccnc2c1NC(=O)c1cccnc1N2C1CC1` [Nevirapine, reference compound] gave a CC50 at 3 days [2] greater than 100 µM, an EC50 ([1]; Human immunodeficiency virus 1) of 0.03 µM and an EC50 [3, 5] of 2.72 µM. It also gave an EC50 [4, 6] of 1.71 µM.
Work on `CCc1c(C)[nH]c(=O)c(CO)c1OC1CC(C)CC(C)C1` (stereo not drawn) [Z45inv] yielded a CC50 (P4 cells) of 76 µM and an EC50 [1] of 0.018 µM.
For `CCc1c(C)[nH]c(=O)c([N+](=O)[O-])c1OC1CC(C)CC(C)C1` (stereo not drawn) [Z91inv, 3-nitro-5-ethyl-6-methyl-4-[(3,5-dimethylcyclohexyl)oxy]pyridine-2(1H)-one], the CC50 at 3 days [2] was 37.2 µM, the EC50 ([1]; Human immunodeficiency virus 1) was less than 0.001 µM and the EC50 [4, 6] was 0.089 µM. The melting point was 206 to 207 °C.
`CCc1c(C)[nH]c(=O)c(CSC(C)=O)c1OC1CC(C)CC(C)C1` (stereo not drawn) [Z114] gave a CC50 (P4 cells) of 8 µM, an EC50 [1] of less than 0.001 µM and an EC50 ([3]; TZM-bl, mutant Cys188RT) of 0.001 µM. The EC50 ([4]; P4, mutant Asn103RT, read-out: EC50 Asn103RT P4) was 0.643 µM.
In the case of `CCc1c(C)[nH]c(=O)c(N(C)C)c1OC1CC(C)CC(C)C1` (stereo not drawn) [Z150, 3-(dimethylamino)-5-ethyl-6-methyl-4-[(3,5-dimethylcyclohexyl)oxy]pyridine-2(1H)-one], the CC50 at 3 days [2] is reported as 66 µM, the EC50 [3, 5] is reported as less than 0.001 µM and the melting point is reported as 129 to 130 °C.
Compound `CCc1c(C)[nH]c(=O)c(CN=[N+]=[N-])c1OC1CC(C)CC(C)C1` (stereo not drawn) [Z153] has a CC50 (P4 cells) of 54 µM and an EC50 ([3]; TZM-bl, mutant Cys188RT) of less than 0.001 µM.
`CCc1c(C)[nH]c(=O)c(C)c1OC1CC(C)CC(C)C1` (stereo not drawn) [Z154] showed a CC50 (P4 cells) of 80 µM.
